Results from patent US20180136198A1, “SYNAPTIC VESICLE CYCLING ASSAYS AND SYSTEMS” (priority 2008, published 2018).

Key:
Assay type in all cases: cell-based
[1] = test system: rat embryonic cortical neurons; assay: synaptopHluorin fluorescence at whole-well level, Zeiss Axiovert Z1 inverted epifluorescence microscope
Excerpt: By introduction into a high percentage of neurons plated at high density within a well, synaptopHluorins were used to measure synaptic vesicle cycling at the whole-well, population level. One way synaptopHluorin was introduced into neurons was by viral infection. Viral delivery of synaptopHluorin was used to validate the ability to measure the synaptic vesicle cycle at the population level. Adeno-associated virus (MOI=1000) was used to deliver synaptopHluorin into rat embryonic cortical neurons plated in 96-well optically-clear plastic-bottomed plates (Nunc) at 11 days in vitro. At 21 days in vitro, neurons were imaged on a Zeiss Axiovert Z1 inverted epifluoresence microscope using low magnification optics (10×, 0.45 NA objective) insufficient to resolve individual synapses. Neurons in the presence or absence of external Ca^++ were treated with ionomycin, a calcium ionophore that triggers synaptic vesicle exocytosis and the resulting fluorescence of synaptopHluorin.

[2] = test system: Primary rat neuronal cultures; assay: synaptopHluorin fluorescence in 96-well plates on the plate::vision plate reader; details: Tyrode's solution, read every 2 seconds for 1 minute
Method: The plate::vision plate reader was evaluated for its ability to record the synaptic vesicle cycle in multiple wells in parallel. Primary rat neuronal cultures in 96-well plates were infected with the synaptopHluorin adeno-associated virus at 12 days in vitro. Culture medium was replaced with Tyrode's solution plus or minus external Ca^++. A baseline recording of fluorescence was measured in the entire plate on the plate::vision plate reader. Then, ionomycin was added to all wells, and fluorescence changes were measured every 2 seconds for 1 minute. […] These changes were similar to those observed when a similar experiment was performed on the Zeiss inverted epifluorescence microscope.

[3] = test system: rat embryonic cortical neurons; assay: sypHy fluorescence (synaptic vesicle exocytosis) on Fluoroskan Ascent FL plate reader; details: 10 uM; GFP-fluorescence recorded at 5 Hz; 33 DIV
Method: It was determined that a Fluoroskan Ascent FL plate reader is capable of measuring aspects of synaptic vesicle cycling, e.g., exocytosis, in neuronal cells expressing a synaptophysin-pHluorin reporter. Rat embryonic cortical neurons were cultured in Greiner uClear 96-well plates. At 7 DIV, cultures were infected with sypHy-AAV. At 33 DIV, culture media was replaced with assay buffer, the plate was loaded onto the Fluoroskan Ascent FL plate reader, and GFP-fluorescence was recorded at 5 Hz. This plate reader uses a photomultiplier tube (PMT) to measure the fluorescence levels in a single well at a time. A baseline fluorescence level was determined, ionomycin (10 uM) was added to induce synaptic vesicle exocytosis, and the resulting change in fluorescence was measured on by plate reader. […] (FIG. 27.)

## C[C@H](CCC(=O)O)C[C@H](C)C[C@H](C)C(=O)/C=C(\O)[C@H](C)C[C@H](C)C/C=C/[C@@H](C)[C@@H](O)[C@@H](C)[C@@H](O)C[C@@H]1CC[C@@](C)([C@H]2CC[C@@](C)([C@@H](C)O)O2)O1 [ionomycin]
[1]; in the absence of external Ca++
  increase in synaptopHluorin signal: about 3%
[1]; in the presence of external Ca++
  increase in synaptopHluorin signal: approximately 20%
[2]; absence of Ca++
  increase in fluorescence: < 5%
[2]; in the presence of Ca++
  increase in fluorescence: about 20%
[3]
  increase in fluorescence intensity: ~15%
